Twelve molecules from ChEMBL document CHEMBL1201862, “PubChem BioAssay data set” (2004) can be followed below.

Structures can show the parent of a compound that is named as a salt.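 These data come from cells grown in 96-well plates and exposed to compound for 48 hours at five concentrations. GI50 is the concentration that inhibits growth by half.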 Active and inactive are the calls of the source. Cut-off read from the data, not from the text of the source: active = GI50 up to about 1.1 µM and inactive = higher. A value given as a limit tells only on which side of the number the result lay.

Among the test systems are NCI-H226; CCRF-CEM; UACC-62; SW-620; UACC-257; M14; SF-268; A498; NCI-H460; RXF 393; OVCAR-4; SK-MEL-28; HCT-15; SK-MEL-2; K562; HOP-92; NCI-H23; SNB-19.
Common to all, as to assay: NCI-60 cell line screen, 48 h

`COC1=C(OC)CCC(/C(C#N)=C/c2ccc(OC)c(OC)c2)=C1`: the GI50 in the assay with NCI-H226, in the assay on CCRF-CEM, in the assay on UACC-62, in the assay with SW-620, in the assay with UACC-257 and with M14 was > 100 µM (inactive) in each case. The GI50 in the assay with SF-268 was 37.2 µM (inactive); in the assay on A498, > 100 µM (inactive); in the assay with NCI-H460, > 100 µM (inactive); with RXF 393, 36.7 µM (inactive); with OVCAR-4 it was > 100 µM (inactive); in the assay with SK-MEL-28, > 100 µM (inactive). Also, the GI50 with HCT-15 is over 100 µM; with SK-MEL-2, 85.9 µM (inactive); with K562, 48.3 µM (inactive); in the assay with HOP-92, 49.8 µM (inactive); with NCI-H23, 79.1 µM (inactive).

As for `CCOC(=O)C(CNc1ccc(O)cc1)NC(=O)c1ccccc1` (stereo not given), the GI50 with NCI-H226 was > 100 µM (inactive); in the assay with CCRF-CEM, 32.3 µM (inactive); with UACC-62, > 53.7 µM (inactive); with SW-620, > 100 µM (inactive); in the assay on UACC-257, > 100 µM (inactive); in the assay on M14, > 66.4 µM (inactive). In addition, the GI50 is > 100 µM (inactive) in the assay with SF-268; > 100 µM (inactive) in the assay with A498; > 100 µM (inactive) in the assay on NCI-H460; > 100 µM (inactive) in the assay on SNB-19; > 100 µM (inactive) in the assay on RXF 393; > 66.2 µM (inactive) with OVCAR-4. Also, the GI50 is > 100 µM (inactive) with SK-MEL-28; over 100 µM in the assay on HCT-15; > 100 µM (inactive) with SK-MEL-2; 37.8 µM (inactive) in the assay on K562; > 100 µM (inactive) in the assay on HOP-92; > 100 µM (inactive) in the assay on NCI-H23.

`C=C(C#N)C1OCC2OC(C)(C)OC21` (stereo not given): the GI50 with CCRF-CEM is 16.5 µM (inactive); with UACC-62, 17.3 µM (inactive); with SW-620, 19 µM (inactive); with UACC-257, 15.5 µM (inactive); with M14, 15.7 µM (inactive); in the assay on SF-268 it was 23.8 µM (inactive). Besides, the GI50 was 22.2 µM (inactive) with A498; 24.9 µM (inactive) with NCI-H460; > 100 µM (inactive) in the assay on SNB-19; 16.7 µM (inactive) in the assay with RXF 393; 19.4 µM (inactive) in the assay with OVCAR-4; 21.1 µM (inactive) in the assay on SK-MEL-28. In addition, the GI50 in the assay on HCT-15 was 16.9 µM; in the assay with SK-MEL-2, 27.4 µM (inactive); with K562, 28.1 µM (inactive); in the assay on HOP-92, 24 µM (inactive); with NCI-H23 it was 18.6 µM (inactive).

As for `CC1(Cl)C(=O)NC(=O)N(C2CC(N=[N+]=[N-])C(CO)O2)C1N=[N+]=[N-]` (stereo not given), the GI50 in the assay with CCRF-CEM, in the assay with UACC-62, in the assay with SW-620, in the assay on UACC-257, with M14 and in the assay on SF-268 was > 100 µM (inactive) each time. Moreover, the GI50 in the assay with A498, in the assay on NCI-H460, with SNB-19, in the assay on RXF 393, in the assay with OVCAR-4 and with SK-MEL-28 was > 100 µM (inactive) in each case. For the same molecule, the GI50 with HCT-15 was over 100 µM; in the assay on SK-MEL-2, > 100 µM (inactive); with K562 it was > 100 µM (inactive); in the assay with HOP-92, > 100 µM (inactive); in the assay with NCI-H23 it was > 100 µM (inactive).

As for `CCN1CCC(O)(c2ccccc2)C(C(=O)c2ccccc2)C1` (stereo not given), the GI50 with NCI-H226 was > 54.1 µM (inactive); in the assay on CCRF-CEM, 15.7 µM (inactive); in the assay on UACC-62, > 45.3 µM (inactive); in the assay with SW-620, 17.6 µM (inactive); in the assay with UACC-257 it was 19.6 µM (inactive); in the assay on M14, 17.3 µM (inactive). In addition, the GI50 is > 31.6 µM (inactive) in the assay on SF-268; > 100 µM (inactive) in the assay on A498; > 100 µM (inactive) in the assay with NCI-H460; > 100 µM (inactive) with SNB-19; 15.5 µM (inactive) in the assay with RXF 393; 18.2 µM (inactive) in the assay on OVCAR-4. In addition, the GI50 in the assay on SK-MEL-28 is 17.9 µM (inactive); with HCT-15, 26.9 µM; in the assay on SK-MEL-2, > 100 µM (inactive); in the assay on K562, 23.7 µM (inactive); in the assay with HOP-92, 17.7 µM (inactive); with NCI-H23, > 53 µM (inactive).

For the molecule `CC(=O)OC1COC(n2ccc3cc(Br)c([N+](=O)[O-])cc32)C(OC(C)=O)C1OC(C)=O` (stereo not given), the GI50 was 14.5 µM (inactive) in the assay with NCI-H226; 21.1 µM (inactive) in the assay with CCRF-CEM; 17.6 µM (inactive) in the assay on UACC-62; 39.5 µM (inactive) in the assay with SW-620; 19.2 µM (inactive) in the assay with UACC-257; 35.8 µM (inactive) in the assay on M14. For the same molecule, the GI50 was 33.4 µM (inactive) in the assay on SF-268; 19.1 µM (inactive) in the assay with A498; 22 µM (inactive) with NCI-H460; 30 µM (inactive) with SNB-19; 24.7 µM (inactive) in the assay with RXF 393; > 10 µM (inactive) with OVCAR-4. The GI50 with SK-MEL-28 was 27.4 µM (inactive); in the assay with HCT-15, 30.9 µM; in the assay with SK-MEL-2, > 10 µM (inactive); in the assay with K562, 29.6 µM (inactive); in the assay on HOP-92 it was 9.44 µM (inactive); in the assay with NCI-H23, 23.3 µM (inactive).

In the case of `CCN(CC)c1c(C)nnn1C1OC(COC(C)=O)C(OC(C)=O)C(OC(C)=O)C1OC(C)=O` (stereo not given), the GI50 with NCI-H226 is > 100 µM (inactive); in the assay on CCRF-CEM it was > 100 µM (inactive); with UACC-62 it was > 100 µM (inactive); in the assay with SW-620, 15 µM (inactive); in the assay on UACC-257, > 100 µM (inactive); in the assay on M14, > 100 µM (inactive). Besides, the GI50 in the assay on SF-268, with A498, in the assay with NCI-H460, in the assay with SNB-19, in the assay on OVCAR-4 and in the assay on SK-MEL-28 was > 100 µM (inactive) in each case. The GI50 was 38.6 µM in the assay on HCT-15, > 100 µM (inactive) with K562, 70.8 µM (inactive) in the assay on HOP-92 and > 100 µM (inactive) in the assay on NCI-H23.

As to `S=c1sc2sc(=S)sc2s1`, the GI50 in the assay with CCRF-CEM is 6.08 µM (inactive); in the assay on UACC-62 it was 37.2 µM (inactive); in the assay on SW-620, > 100 µM (inactive); in the assay on UACC-257, > 100 µM (inactive); in the assay with M14, 21.1 µM (inactive); in the assay on SF-268, 43.1 µM (inactive). The GI50 in the assay with A498 is 23.5 µM (inactive); with NCI-H460 it was 22.4 µM (inactive); in the assay on SNB-19, > 100 µM (inactive); in the assay with RXF 393, 35.6 µM (inactive); in the assay with OVCAR-4, > 100 µM (inactive); in the assay on HCT-15, 26.1 µM. Moreover, the GI50 in the assay on SK-MEL-2 was > 100 µM (inactive); in the assay with K562 it was 22.3 µM (inactive); with HOP-92, 57.9 µM (inactive).

In the case of `C[C@H]1C[C@@H]2[C@H]([C@@H](O)C[C@@]3(C)[C@H]2CC[C@]3(O)C(=O)CO)[C@@]2(C)C=CC(=O)C=C12` [METHYLPREDNISOLONE], the GI50 in the assay with NCI-H226 was > 100 µM (inactive); in the assay on CCRF-CEM, 0.0429 µM (active); in the assay on UACC-62, > 100 µM (inactive); in the assay with SW-620, > 100 µM (inactive); in the assay with UACC-257, > 100 µM (inactive); in the assay with M14, > 100 µM (inactive). The GI50 was > 100 µM (inactive) in the assay with A498; > 100 µM (inactive) in the assay on NCI-H460; > 100 µM (inactive) with OVCAR-4; > 100 µM (inactive) with SK-MEL-28; over 100 µM in the assay on HCT-15; > 100 µM (inactive) in the assay on SK-MEL-2. The GI50 with K562, in the assay on HOP-92 and in the assay on NCI-H23 was > 100 µM (inactive) in each case.

In the case of `O=C1OC(c2ccccc2)=N/C1=C/N1CCCC1C(=O)O` (stereo not given), the GI50 with NCI-H226, in the assay on CCRF-CEM, in the assay on UACC-62, with SW-620, in the assay on UACC-257 and in the assay on M14 was > 100 µM (inactive) throughout. The GI50 in the assay with SF-268, in the assay with A498, in the assay with NCI-H460, in the assay with SNB-19, with RXF 393 and with OVCAR-4 was > 100 µM (inactive) in each case. The GI50 with SK-MEL-28 is > 100 µM (inactive); in the assay on HCT-15, over 100 µM; with SK-MEL-2 it was > 100 µM (inactive); in the assay with K562 it was > 100 µM (inactive); in the assay on HOP-92 it was > 100 µM (inactive); in the assay on NCI-H23, > 100 µM (inactive).

As to `CNC(C)Cc1ccccc1OC` (stereo not given) [METHOXYPHENAMINE HYDROCHLORIDE], the GI50 with NCI-H226, in the assay with CCRF-CEM, in the assay with UACC-62, in the assay on SW-620, in the assay on UACC-257 and with M14 was > 100 µM (inactive) in each case. In addition, the GI50 in the assay with SF-268, with A498, with NCI-H460, with SNB-19, in the assay on RXF 393 and in the assay on OVCAR-4 was > 100 µM (inactive) throughout. In addition, the GI50 with SK-MEL-28 is > 100 µM (inactive); in the assay with HCT-15, over 100 µM; in the assay with SK-MEL-2 it was > 100 µM (inactive); in the assay on K562, > 100 µM (inactive); with HOP-92, > 100 µM (inactive); in the assay on NCI-H23, > 100 µM (inactive).

As for `CCCCCCCCCCCCCC1CCC(CC)N1` (stereo not given), the GI50 in the assay on NCI-H226 was 15.3 µM (inactive); in the assay on CCRF-CEM it was 5.2 µM (inactive); with UACC-62, 6.98 µM (inactive); in the assay with SW-620, 15.9 µM (inactive); with UACC-257, 20.7 µM (inactive); in the assay on M14 it was 17.9 µM (inactive). Also, the GI50 with SF-268 is 8.81 µM (inactive); with A498 it was 21.4 µM (inactive); in the assay with NCI-H460, 2.12 µM (inactive); with SNB-19, 16.9 µM (inactive); with RXF 393, 17.9 µM (inactive); in the assay on OVCAR-4, 17.4 µM (inactive). In addition, the GI50 in the assay with SK-MEL-28 was 7.66 µM (inactive); with HCT-15, 6.52 µM; in the assay on SK-MEL-2, 21.8 µM (inactive); in the assay with K562, 14.8 µM (inactive); in the assay on HOP-92 it was 16.2 µM (inactive); in the assay with NCI-H23, 18.6 µM (inactive).
